What was measured:
[1] = 101.33 kPa, Liquid; for speed of sound: Sing-around technique in a fixed-path interferometer
[2] = mn = molality of the nth substance listed, in mol/kg; details: 298.15 K, 101 kPa, Liquid; for speed of sound: Sing-around technique in a fixed-path interferometer

CC(C)=O [acetone]
[1], 298.15 K
Details	mass density [kg/m3]	speed of sound [m/s]
–	784.233	1161.7

CC#N [acetonitrile]
[1], 298.15 K
Details	mass density [kg/m3]	speed of sound [m/s]
–	776.6	1279.2

[Br-].[Li+] [lithium bromide] + CC(C)O
[2]
Details	mass density [kg/m3]	speed of sound [m/s]
m1 = 0.0787	786.228	1142.6
m1 = 0.0957	787.379	1143.1
m1 = 0.1024	787.748	1143.3
m1 = 0.1387	790.137	1144.5
m1 = 0.1915	793.601	1146.2
m1 = 0.2503	797.348	1148.1
m1 = 0.3451	803.296	1150.9
m1 = 0.3951	806.427	1152.3
m1 = 0.4768	811.456	1154.5
m1 = 0.594	818.719	1157.7
m1 = 0.697	824.988	1160.3
m1 = 0.7757	829.74	1162.3
m1 = 0.9066	837.46	1165.4
m1 = 1.003	843.093	1167.7
m1 = 1.158	851.831	1170.5
m1 = 1.272	858.084	1173.5

[Br-].[Li+] [lithium bromide] + CC#N
[2]
Details	mass density [kg/m3]	speed of sound [m/s]
m1 = 0.0209	778.135	1279.8
m1 = 0.0302	778.802	1280.1
m1 = 0.0403	779.512	1280.4
m1 = 0.0478	780.04	1280.6
m1 = 0.07	781.58	1281.3
m1 = 0.0799	782.247	1281.6
m1 = 0.0904	782.95	1281.9
m1 = 0.0986	783.518	1282.1
m1 = 0.1212	784.97	1282.8
m1 = 0.1506	786.812	1283.7
m1 = 0.1985	789.96	1285
m1 = 0.2498	793.354	1286.4
m1 = 0.2981	796.544	1287.7
m1 = 0.3974	803.094	1290.4
m1 = 0.5004	809.733	1293.1
m1 = 0.596	815.99	1295.6
m1 = 0.6972	822.595	1298.2

CC(C)O [propan-2-ol]
[1], 298.15 K
Details	mass density [kg/m3]	speed of sound [m/s]
–	780.804	1139.1

CC(=O)N(C)C [N,N-dimethylethanamide]
[1], 323.15 K
Details	mass density [kg/m3]	speed of sound [m/s]
–	913.129	1357.8

CO [methanol]
[1], 298.15 K
Details	mass density [kg/m3]	speed of sound [m/s]
–	786.71	1108.5

[Br-].[Li+] [lithium bromide] + CCO
[2]
Details	mass density [kg/m3]	speed of sound [m/s]
m1 = 0.0789	790.432	1147
m1 = 0.0913	791.251	1147.4
m1 = 0.0985	791.782	1147.8
m1 = 0.1384	794.334	1149.2
m1 = 0.1556	795.465	1150.1
m1 = 0.2019	798.467	1151.6
m1 = 0.2348	800.584	1152.6
m1 = 0.2495	801.494	1153.2
m1 = 0.301	804.725	1154.7
m1 = 0.4002	810.966	1157.8
m1 = 0.4903	816.539	1160.5
m1 = 0.6076	823.796	1163.8
m1 = 0.7038	829.747	1166.5
m1 = 0.8013	835.512	1168.9
m1 = 0.8975	841.268	1171.5
m1 = 1.013	848.08	1174.4
m1 = 1.093	852.846	1176.6
m1 = 1.215	860.012	1179.5

Reference: the NIST ThermoML archive (doi:10.1016/j.jct.2007.04.006)
